# Results taken from patent US10138240B2, “Crystal of 5-hydroxy-4-(trifluoromethyl)pyrazolopyridine derivative” (Daiichi Sankyo Company, Limited, priority 2015, dated 2018).
# Tests used:
# cynomolgus monkey = experiment: Drug efficacy test in cynomolgus monkeys (plasma HDL cholesterol); format: in vivo; conditions: oral, single dose of 10 mg/kg, from AUC before administration and 24 hours after administration
# Method: Each test drug was dissolved in a propylene glycol (Sigma-Aldrich Corp.)-Tween 80 (Sigma-Aldrich Corp.) mixed solution [4/1 (v/v)] or a 0.5% (w/v) methylcellulose aqueous solution, and the solution was orally administered to a cynomolgus monkey for 1 or 7 days. At 1 or 7 day of administration period, blood was collected before administration and after administration, and plasma was obtained. The content of cholesterol in the plasma was measured using a commercially available assay kit (Cholesterol-E Wako, Wako Pure Chemical Industries, Ltd.). The lipoprotein profile was analyzed by HPLC (column: LipopropakXL, manufactured by Tosoh Corp.). The contents of HDL cholesterol and non-HDL cholesterol were calculated according to the following calculation expression: Content of HDL cholesterol=Content of cholesterol in the plasma×(Peak area of HDL cholesterol/Total sum of peaks) Content of non-HDL cholesterol=Content of cholesterol in the plasma×(Peak area of non-HDL cholesterol/Total sum of peaks)
# The rate (%) of increase in HDL level after the administration of a single dose of 10 mg/kg compared with before administration was determined from the AUC before administration and 24 hours after administration.
# LCAT = LCAT (Homo sapiens (Human), UniProt P04180); experiment: LCAT activity measurement (in vitro), HDL3 fraction from human plasma as enzyme source and acceptor; format: biochemical; conditions: HDL3 1 mg/mL from plasma of a healthy person, [14C]cholesterol, 37° C., approximately 16 hours; read-out: EC50 of LCAT activation
# LCAT, sequence (P04180 25-440): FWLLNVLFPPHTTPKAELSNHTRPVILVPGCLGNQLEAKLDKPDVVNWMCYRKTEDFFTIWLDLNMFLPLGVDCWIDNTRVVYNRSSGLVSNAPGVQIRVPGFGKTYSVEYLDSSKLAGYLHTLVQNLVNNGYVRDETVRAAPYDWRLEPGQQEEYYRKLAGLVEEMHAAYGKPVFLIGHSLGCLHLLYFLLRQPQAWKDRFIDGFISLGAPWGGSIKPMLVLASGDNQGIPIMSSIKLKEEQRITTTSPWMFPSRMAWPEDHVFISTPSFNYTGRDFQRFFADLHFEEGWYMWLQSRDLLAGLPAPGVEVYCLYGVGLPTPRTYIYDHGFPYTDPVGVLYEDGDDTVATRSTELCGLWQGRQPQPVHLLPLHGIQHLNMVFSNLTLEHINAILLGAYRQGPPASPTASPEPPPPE
# Method: A fraction composed of HDL3 (1.125<specific gravity <1.210 g/mL) was obtained from the plasma of a healthy person by density gradient centrifugation. The obtained fraction was dialyzed against phosphate-buffered saline (pH 7.4) and used as an enzyme source and an acceptor for LCAT. Each test drug was prepared by dissolution in dimethyl sulfoxide. [^14C]Cholesterol containing DTNB (Ellman's reagent, final concentration: 0.5 mM), mercaptoethanol (final concentration: 12.5 mM), and 0.6% bovine serum albumin was added to phosphate-buffered saline (pH 7.4) containing 1 mg/mL HDL3, and the test drug was further added thereto at varying concentrations to adjust the whole amount to 80 μL. This mixture was incubated at 37° C. for approximately 16 hours. Then, a mixed solution of hexane and isopropanol (mixing ratio=3:2) was added thereto to stop the reaction. After stirring, the hexane layer was collected, and this layer was evaporated to dryness. […] The radioactivity of a portion corresponding to cholesterol oleate was measured using an imaging analyzer BAS-2500 (manufactured by Fujifilm Corp.). […] The EC50 value of LCAT activation was calculated according to the expression given below relative to the LCAT activity in the sample non-supplemented with the test drug. […]
EC50 (LCAT),Compound,Rate of increase in HDL level after administration of single dose (cynomolgus monkey)
4 nM,"O=C1Nc2[nH]nc(C3CCN(c4cnc(C(F)(F)F)cn4)CC3)c2C(O)(C(F)(F)F)C1O (single isomer, unassigned; (+)) [Example 1(4), (+)-4,5-Dihydroxy-4-(trifluoromethyl)-3-{1-[5-(trifluoromethyl)pyrazin-2-yl]piperidin-4-yl}-1,4,5,7-tetrahydro-6H-pyrazolo[3,4-b]pyridin-6-one]",590%
18 nM,"O=C1Nc2[nH]nc(C3CCN(c4cnc(C(F)(F)F)nc4)CC3)c2[C@@H](C(F)(F)F)[C@H]1O [Example 6(4), (+)-cis-5-Hydroxy-4-(trifluoromethyl)-3-{1-[2-(trifluoromethyl)pyrimidin-5-yl]piperidin-4-yl}-1,4,5,7-tetrahydro-6H-pyrazolo[3,4-b]pyridin-6-one]",483%
